Data as given in patent US20250195498A1, “INHIBITOR OF CELLULAR PURINE NUCLEOTIDE SALVAGE PATHWAY ENZYME FOR USE IN THE TREATMENT AND/OR PREVENTION OF HELICOBACTER PYLORI INFECTION AND/OR DISEASE ASSOCIATED WITH SUCH INFECTION AND PHARMACEUTICAL COMPOSITION COMPRISING THE SAME” (UNIWERSYTET WARSZAWSKI, priority 2022, published 2025).
Read-outs that look alike come from different tables or passages of the source.

Tests used:
[1] = target: T1, PNP from E. coli (Escherichia coli, UniProt P0ABP8); assay: Inhibition of PNP from E. coli; assay type: biochemical; details: previous work of the inventors
[2] = target: T2, PNP from H. pylori strain 26695 (Helicobacter pylori, UniProt P56463); assay: Inhibition of PNP from H. pylori, spectrophotometric phosphorolysis assay; assay type: biochemical; details: formycins; kinetic methods of Example 1; read-out: inhibition constant
T2 construct: made in house; host or cells: E. coli
Text: The specific activity of PNP is usually determined using inosine as a substrate, in an assay in which the phosphorolysis product, hypoxanthine, is oxidized to uric acid in a reaction catalysed by xanthine oxidase. However, in the inhibition assay of PNP from H. pylori strain 26695, 7-methylguanosine (m^7Guo) and guanosine (Guo) were used as nucleoside substrates to avoid potential inhibition of xanthine oxidase by the test compounds. Phosphorolysis of these two substrates can be observed using a direct spectrophotometric method in a known manner.
Enzymatic activity was studied in a quartz cuvette with an optical path length of 1 cm or 0.5 cm. The absorbance of the reaction mixture, at the observation wavelength, never exceeded 1.2. The reaction volume was 1 ml or 1.4 ml in cuvettes with optical path lengths of 1 cm and 0.5 cm, respectively. The reaction mixture contained 50 mM Hepes/NaOH buffer, pH 7.0, 50 mM phosphate buffer, pH 7.0 (unless otherwise indicated), nucleoside substrate and inhibitor (with the latter not added to the reference/control reactions). Reactions were usually initiated by adding the enzyme to a cuvette containing the other reaction components. However, in cases where possible slow formation of an inhibitor-enzyme complex was checked, a second variant was also used involving incubation of the enzyme in a reaction mixture containing the inhibitor but lacking the substrate, 7-methylguanosine, and initiation of the reaction by adding this substrate.
In order to determine the inhibition constants and determine the molecular mechanism of inhibition, equations describing different mechanisms of inhibition were fitted to the obtained experimental data. GraphPad Prism 8 program was used. The model best describing the obtained data was selected based on the sum of squares of deviations using the F test for models with different number of parameters and the Akaike criterion (AIC) for models with the same number of parameters.
The following equations were used to describe competitive inhibition, characterized by the inhibition constant Kic, [1], uncompetitive, characterized by the inhibition constant Kiu, [2], non-competitive, characterized by the inhibition constant Kin, [3], and mixed, characterized by the inhibition constants Kiu and Kic, [4] (Segel, 1993):
The last equation can also be represented in the following form, as used by GraphPad Prism software, where Kiu=alpha Kic:
Immucillin A was chosen as the most promising one for potential pharmacological use in combating H. pylori infection because immucillin A has an amino substituent at position 6 of the 9-dazapurine ring, while PNP found in the human body requires a substituent at this position having electron-pairs-hydrogen bond acceptors, such as a substituent in the form of a keto group, to strongly bind the ligand. According to the invention, it is therefore believed that immucillin A will not interact with the host PNP, and thus allow selective inhibition of the PNP from H. pylori. Using the methods described above, the effect of immucillin A on the rate of the 7-methylguanosine (m^7Guo) phosphorolysis reaction catalysed by PNP from H. pylori was examined (FIG. 1). Since it is known (Schramm, 2018) that immucillins form a strongly bound complex with the enzyme relatively slowly, reactions were initiated by adding the substrate, m^7Guo, to a cuvette in which the enzyme was incubated with the inhibitor, as described in Example 1.
Data analysis was also performed as described in this Example. The range of substrate concentrations tested was 10-200 μM or 10-280 μM (shown in FIG. 4), and the range of inhibitor concentrations was chosen according to the observed degree of inhibition of the reaction, in order to obtain a significant degree of inhibition that allows determination of the inhibition mechanism and determination of inhibition constants (see FIG. 4). […]

[3] = test system: H. pylori strain 26695; assay: Growth curve method / MIC in liquid culture, strain 26695; assay type: cell-based, Helicobacter pylori; details: 2.5 mM; strain not stated, method of Example 3
Procedure: The representative PNP inhibitor from H. pylori included in this study was immucillin A. The experiment was conducted using the growth curve method (two-fold serial dilutions in liquid medium). The tested H. pylori strains were cultured in Petri dishes with BHI solid medium supplemented with 10% FBS and 1% H. pylori Selective Supplement antibiotic kit, in anaerostats under microaerophilic conditions (5% 02, 10% CO2, 85% N2) at 37° C. for 3 days. Liquid culture of H. pylori was conducted overnight with shaking at 37° C. under microaerophilic conditions in BHI medium supplemented with 10% FBS and 1% H. pylori Selective Supplement antibiotic kit. Subsequently, for the essential experiment of determining the minimum inhibitory concentration (MIC), double strengthened liquid BHI medium was prepared, that is, supplemented with 20% FBS and a 2% set of H. pylori Selective Supplement antibiotics.
Bacterial proliferation inhibition experiments were carried out in 24-deep-well 2 ml flat-bottomed plates at a solution volume per well of 0.5 ml. In a single well, double strengthened (relative to the concentration planned for testing) solutions of the test inhibitor and double strengthened liquid BHI medium inoculated with H. pylori (10^4-10^5 CFU/ml in the final volume in the well, corresponding to the optical density of the culture OD600=0.05) were mixed together in a 1:1 ratio.
Kanamycin at a concentration of 25 μg/ml (Irie et al., 1997) was used as a positive control, while Mili-Q deionized water and BHI medium not inoculated with bacteria were used as negative controls. Plates were shaken at 37° C., under microaerophilic conditions. […] After 24 hours, the OD600 of samples containing the negative control, i.e. with Mili-Q deionized water, was about 1.2-1.4, corresponding to a bacterial concentration of about […].
In addition, the method proposed by Knezevic et al. (2018) was used to check whether the observed OD600 was from live bacterial cells. For this purpose, an equal volume of Christensen's double strength urea broth (that is, containing twice the concentration of all components) was added to the wells after incubation, and the plates were additionally incubated for 4 hours in an oxygen atmosphere at 37° C. During incubation, in wells with urease produced by live bacteria, urea is converted to ammonia and carbon dioxide, changing the pH of the solution and thus the colour of the phenol red indicator contained in the medium (from orange to purple).
All experiments were performed in triplicate.
The experiments were carried out using the growth curve method as described in Example 3, and the results obtained for two of the compounds tested are shown in FIG. 5. As the water solubility of the compounds tested, with the exception of 2,6-diCl-Pu, is relatively poor, two experiments were carried out: the first with the maximum concentration possible under the experimental conditions in aqueous solution with a small admixture of DMSO, and the second with higher concentrations that led to partial precipitation of the compound.
The antibacterial activity of two compounds, mefloquine (in the form of hydrochloride) and quinine, described in the literature as potent in vitro inhibitors of the PNP enzyme from Plasmodium falciparum (Dziekan et al., 2019), was tested. Using a two-fold serial dilution method in liquid medium (as described in Example 3), the MIC values for mefloquine and quinine were determined against clinical H. pylori strains resistant to MTZ, CLR and MTZ+CLR (M26, M91, M92 and M93), as well as the reference H. pylori strain 26695. Four clinical H. pylori strains isolated from adults, from primary infections (the subjects had never previously been treated against H. pylori infection) were tested. These strains come from the collection of the Department of Microbiology of the Medical University of Wroclaw and were obtained due to collaboration with Prof. Grażyna Gościniak, MD, PhD. […]

[4] = target: T2, PNP from H. pylori strain 26695; details: formycins; Wojtyś et al., 2021; read-out: inhibition constant; cited from earlier work
[5] = target: T1, PNP from E. coli; details: read-out: inhibition constant; cited from earlier work
[6] = target: T3, human PNP (Homo sapiens, UniProt P00491); details: Bzowska et al., 2000; cited from earlier work
T3 sequence (P00491 1-289): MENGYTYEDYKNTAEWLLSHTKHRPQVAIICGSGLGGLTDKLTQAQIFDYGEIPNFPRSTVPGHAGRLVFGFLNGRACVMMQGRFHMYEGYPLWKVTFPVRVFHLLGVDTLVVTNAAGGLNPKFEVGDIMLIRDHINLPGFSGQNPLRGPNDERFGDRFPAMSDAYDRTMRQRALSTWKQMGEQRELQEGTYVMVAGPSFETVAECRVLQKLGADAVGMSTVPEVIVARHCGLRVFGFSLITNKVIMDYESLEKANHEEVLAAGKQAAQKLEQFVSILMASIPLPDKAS

T2 sequence (P56463 whole entry): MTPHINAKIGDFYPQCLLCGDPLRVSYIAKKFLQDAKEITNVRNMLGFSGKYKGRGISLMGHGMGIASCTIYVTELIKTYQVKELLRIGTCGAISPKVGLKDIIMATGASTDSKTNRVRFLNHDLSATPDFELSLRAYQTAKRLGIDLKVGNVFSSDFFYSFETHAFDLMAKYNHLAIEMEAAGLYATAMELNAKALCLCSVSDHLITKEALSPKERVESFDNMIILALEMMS
T1 sequence (P0ABP8 2-239): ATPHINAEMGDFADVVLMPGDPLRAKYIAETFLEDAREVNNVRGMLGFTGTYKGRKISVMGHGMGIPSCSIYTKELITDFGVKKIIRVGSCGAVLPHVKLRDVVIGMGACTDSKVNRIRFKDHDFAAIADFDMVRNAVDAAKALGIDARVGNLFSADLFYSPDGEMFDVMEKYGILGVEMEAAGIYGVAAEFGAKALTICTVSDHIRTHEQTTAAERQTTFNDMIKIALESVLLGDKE

Structure (SMILES) | stronger inhibition than formycin A [1] [fold] | Ki [2] [µM] | inhibition of H. pylori growth (% of the growth observed without the inhibitor) [3] | Ki [4] [µM] | Ki [5] [µM] | inhibition of human PNP [6]
Cn1cnc2c([C@@H]3O[C@H](CO)C(O)[C@@H]3O)nnc-2c1N (some centres unmarked) [6-methylformycin A] | 10 |  |  |  |  | 
Nc1ncnc2c([C@@H]3O[C@H](CO)[C@@H](O)[C@H]3O)[nH]nc12 [formycin A] |  | 14 | 50% | 14 | ~5 | not an inhibitor
O=c1[nH]cnc2c([C@@H]3O[C@H](CO)[C@@H](O)[C@H]3O)n[nH]c12 [formycin B] |  | 1 | very weak inhibition | 1 | ~5 | very weak inhibitor
